{
  "source": "ChEMBL document CHEMBL5214954",
  "about": "“Identification of PI3K/HDAC Dual-targeted inhibitors with subtype selectivity as potential therapeutic agents against solid Tumors: Building HDAC6 potency in a Quinazolinone-based PI3Kδ-selective template” (Bioorg Med Chem, 2022)",
  "key": {"[1]": {"test": "Apparent volume of distribution in male Sprague-Dawley rat at 2 mg/kg, iv measured upto 24 hrs by LC-MS/MS analysis", "type": "ADME, organism-based", "settings": "in vivo, read-out: Vz"}, "Histone deacetylase 11": {"target": "T1, Histone deacetylase 11 (Homo sapiens, UniProt Q96DB2)", "T1 sequence (Q96DB2 whole entry)": "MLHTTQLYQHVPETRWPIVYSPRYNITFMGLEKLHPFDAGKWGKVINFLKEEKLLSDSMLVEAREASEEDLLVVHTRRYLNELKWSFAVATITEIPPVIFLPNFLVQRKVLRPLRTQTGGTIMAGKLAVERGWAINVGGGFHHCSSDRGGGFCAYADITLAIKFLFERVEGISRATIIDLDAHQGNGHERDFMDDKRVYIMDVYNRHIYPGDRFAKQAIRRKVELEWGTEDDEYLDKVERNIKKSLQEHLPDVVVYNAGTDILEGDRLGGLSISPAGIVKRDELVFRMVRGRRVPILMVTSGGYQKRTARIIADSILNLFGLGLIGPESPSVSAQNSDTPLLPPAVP", "description": "Inhibition of HDAC11 (unknown origin) measured by fluorescence based assay"}, "[2]": {"test": "Cmax in male Sprague-Dawley rat at 2 mg/kg, iv measured upto 24 hrs by LC-MS/MS analysis", "type": "ADME, organism-based", "set-up": "time < 24 hrs, dose 2 mg/kg, route iv", "settings": "in vivo"}, "Homo sapiens [3]": {"species": "Homo sapiens", "test": "Selectivity ratio, ratio IC50 for inhibition of PI3Kalpha (unknown origin) to IC50 for inhibition of PI3Kdelta (unknown origin)"}, "Histone deacetylase 1": {"target": "Histone deacetylase 1 (Homo sapiens, UniProt Q13547)", "sequence (Q13547 whole entry)": "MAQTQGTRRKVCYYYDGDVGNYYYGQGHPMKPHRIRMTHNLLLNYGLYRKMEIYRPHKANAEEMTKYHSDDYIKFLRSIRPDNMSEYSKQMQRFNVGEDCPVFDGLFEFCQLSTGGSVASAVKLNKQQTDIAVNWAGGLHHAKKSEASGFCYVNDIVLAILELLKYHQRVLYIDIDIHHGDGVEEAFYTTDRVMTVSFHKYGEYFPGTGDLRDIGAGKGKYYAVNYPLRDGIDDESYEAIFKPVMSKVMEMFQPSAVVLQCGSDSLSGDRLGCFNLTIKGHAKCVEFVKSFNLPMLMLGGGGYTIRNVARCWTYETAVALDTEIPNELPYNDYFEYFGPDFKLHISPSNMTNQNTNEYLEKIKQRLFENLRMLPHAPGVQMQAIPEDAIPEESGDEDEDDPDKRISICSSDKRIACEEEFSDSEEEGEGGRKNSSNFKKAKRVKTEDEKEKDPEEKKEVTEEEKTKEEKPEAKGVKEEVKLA", "description": "Inhibition of HDAC1 (unknown origin) measured by fluorescence based assay"}, "[4]": {"test": "AUC (0 to infinity) in male Sprague-Dawley rat at 2 mg/kg, iv measured upto 24 hrs by LC-MS/MS analysis", "type": "ADME, organism-based", "set-up": "time < 24 hrs, dose 2 mg/kg, route iv", "settings": "in vivo"}, "T47D [5]": {"system": "T47D", "test": "Downregulation of pAKT expression in human T47D cells at 10 to 1000 nM measured by western blot analysis", "type": "functional, cell-based", "settings": "dose 10-1000 nM, DDE = dose-dependent effect"}, "[6]": {"test": "Half life in male Sprague-Dawley rat at 2 mg/kg, iv measured upto 24 hrs by LC-MS/MS analysis", "type": "ADME, organism-based", "settings": "in vivo"}, "[7]": {"target": "Phosphatidylinositol 4,5-bisphosphate 3-kinase catalytic subunit gamma isoform (Homo sapiens, UniProt P48736)", "sequence (P48736 whole entry, canonical isoform)": "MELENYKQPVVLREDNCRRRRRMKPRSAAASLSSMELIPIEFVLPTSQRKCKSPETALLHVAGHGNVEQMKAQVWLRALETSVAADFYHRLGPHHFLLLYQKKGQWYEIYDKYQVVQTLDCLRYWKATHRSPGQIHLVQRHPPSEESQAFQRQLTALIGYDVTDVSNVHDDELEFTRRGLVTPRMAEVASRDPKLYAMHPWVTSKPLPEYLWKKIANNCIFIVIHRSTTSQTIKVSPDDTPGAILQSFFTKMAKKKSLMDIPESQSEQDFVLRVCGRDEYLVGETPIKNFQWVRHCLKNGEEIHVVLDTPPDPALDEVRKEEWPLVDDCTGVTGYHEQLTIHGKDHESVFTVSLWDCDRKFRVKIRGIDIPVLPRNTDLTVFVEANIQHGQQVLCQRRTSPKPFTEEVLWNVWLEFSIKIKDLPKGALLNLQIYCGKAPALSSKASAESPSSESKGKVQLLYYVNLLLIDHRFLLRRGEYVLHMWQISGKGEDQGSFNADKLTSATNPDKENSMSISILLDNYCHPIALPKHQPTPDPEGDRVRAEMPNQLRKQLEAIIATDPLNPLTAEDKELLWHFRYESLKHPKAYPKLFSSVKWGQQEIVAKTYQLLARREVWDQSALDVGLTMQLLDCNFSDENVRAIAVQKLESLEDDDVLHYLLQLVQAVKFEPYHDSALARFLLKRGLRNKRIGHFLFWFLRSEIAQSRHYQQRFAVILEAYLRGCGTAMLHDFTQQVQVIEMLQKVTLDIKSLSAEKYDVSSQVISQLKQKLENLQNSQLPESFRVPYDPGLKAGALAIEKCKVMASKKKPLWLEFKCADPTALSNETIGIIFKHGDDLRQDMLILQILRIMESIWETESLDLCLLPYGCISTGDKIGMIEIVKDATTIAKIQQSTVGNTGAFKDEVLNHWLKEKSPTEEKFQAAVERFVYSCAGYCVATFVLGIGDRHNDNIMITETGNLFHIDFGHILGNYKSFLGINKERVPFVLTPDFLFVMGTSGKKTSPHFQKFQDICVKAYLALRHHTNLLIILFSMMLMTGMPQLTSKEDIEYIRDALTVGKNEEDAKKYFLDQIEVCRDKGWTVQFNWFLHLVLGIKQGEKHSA", "test": "Inhibition of PI3Kgamma (unknown origin) measured by ADP-Glo assay"}, "Homo sapiens [8]": {"species": "Homo sapiens", "test": "Selectivity ratio, ratio IC50 for inhibition of PI3Kgamma (unknown origin) to IC50 for inhibition of PI3Kdelta (unknown origin)"}, "Histone deacetylase 8": {"target": "T2, Histone deacetylase 8 (Homo sapiens, UniProt Q9BY41)", "T2 sequence (Q9BY41 whole entry)": "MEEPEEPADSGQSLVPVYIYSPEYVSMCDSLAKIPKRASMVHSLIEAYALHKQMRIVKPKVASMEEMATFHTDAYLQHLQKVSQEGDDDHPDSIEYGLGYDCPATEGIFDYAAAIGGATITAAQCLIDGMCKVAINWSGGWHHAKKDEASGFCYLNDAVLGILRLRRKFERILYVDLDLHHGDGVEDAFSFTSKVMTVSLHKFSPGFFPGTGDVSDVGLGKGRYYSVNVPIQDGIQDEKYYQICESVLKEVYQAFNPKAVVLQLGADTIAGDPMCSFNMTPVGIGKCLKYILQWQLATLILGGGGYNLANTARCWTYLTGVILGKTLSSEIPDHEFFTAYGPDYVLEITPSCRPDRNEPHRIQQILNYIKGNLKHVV", "description": "Inhibition of HDAC8 (unknown origin) measured by fluorescence based assay"}, "SU-DHL-6": {"system": "SU-DHL-6", "test": "Antiproliferative activity against human SU-DHL-6 cells incubated for 72 hrs by CCK-8 assay", "type": "functional, cell-based", "settings": "SU-DHL-6, 72 h"}, "[9]": {"test": "Clearance in male Sprague-Dawley rat at 2 mg/kg, iv measured upto 24 hrs by LC-MS/MS analysis", "type": "ADME, organism-based", "settings": "in vivo"}, "[10]": {"test": "Cytotoxicity against HUVEC cells incubated for 72 hrs by CCK-8 assay", "settings": "human"}, "T47D [11]": {"system": "T47D", "test": "Downregulation of pSTAT3 expression in IL-6-stimulated human T47D cells at 10 to 1000 nM measured by western blot analysis", "type": "functional, cell-based", "settings": "dose 10-1000 nM, DDE = dose-dependent effect"}, "[12]": {"target": "Phosphatidylinositol 4,5-bisphosphate 3-kinase catalytic subunit alpha isoform (Homo sapiens, UniProt P42336)", "sequence (P42336 whole entry, canonical isoform)": "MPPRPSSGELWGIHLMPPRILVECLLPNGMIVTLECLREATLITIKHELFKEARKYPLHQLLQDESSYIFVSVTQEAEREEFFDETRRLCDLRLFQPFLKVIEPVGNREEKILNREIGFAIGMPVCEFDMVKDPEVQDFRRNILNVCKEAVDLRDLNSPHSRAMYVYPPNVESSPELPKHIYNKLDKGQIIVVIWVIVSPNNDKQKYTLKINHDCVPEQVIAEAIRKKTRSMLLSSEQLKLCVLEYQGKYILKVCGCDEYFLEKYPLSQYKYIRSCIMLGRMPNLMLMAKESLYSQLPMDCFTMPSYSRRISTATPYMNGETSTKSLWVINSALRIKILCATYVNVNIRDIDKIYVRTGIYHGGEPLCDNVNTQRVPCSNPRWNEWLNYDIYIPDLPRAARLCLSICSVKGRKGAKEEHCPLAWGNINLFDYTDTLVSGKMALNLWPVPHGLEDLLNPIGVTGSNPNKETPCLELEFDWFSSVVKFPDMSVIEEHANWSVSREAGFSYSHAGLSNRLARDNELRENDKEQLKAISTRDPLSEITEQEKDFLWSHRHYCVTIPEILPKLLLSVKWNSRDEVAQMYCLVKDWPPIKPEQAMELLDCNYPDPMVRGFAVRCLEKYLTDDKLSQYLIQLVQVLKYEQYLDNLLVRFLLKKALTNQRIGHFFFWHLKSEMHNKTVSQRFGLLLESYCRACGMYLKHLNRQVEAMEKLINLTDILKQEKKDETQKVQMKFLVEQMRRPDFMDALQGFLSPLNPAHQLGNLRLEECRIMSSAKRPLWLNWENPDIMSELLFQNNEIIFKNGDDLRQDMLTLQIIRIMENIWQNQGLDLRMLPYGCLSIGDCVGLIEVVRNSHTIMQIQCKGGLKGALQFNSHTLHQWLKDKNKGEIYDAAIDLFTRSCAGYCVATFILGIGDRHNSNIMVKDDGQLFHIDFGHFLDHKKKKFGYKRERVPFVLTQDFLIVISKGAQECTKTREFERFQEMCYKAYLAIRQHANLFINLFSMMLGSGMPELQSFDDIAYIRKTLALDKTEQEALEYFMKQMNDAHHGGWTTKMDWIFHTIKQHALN", "test": "Inhibition of PI3Kalpha (unknown origin) measured by ADP-Glo assay"}, "T47D [13]": {"system": "T47D", "test": "Antiproliferative activity against human T47D cells incubated for 72 hrs by CCK-8 assay", "type": "functional, cell-based"}, "KM12": {"system": "KM12", "test": "Antiproliferative activity against human KM12 cells incubated for 72 hrs by CCK-8 assay", "type": "functional, cell-based", "settings": "KM12, 72 h"}, "[14]": {"target": "T3, Phosphatidylinositol 4,5-bisphosphate 3-kinase catalytic subunit delta isoform (Homo sapiens, UniProt O00329)", "T3 sequence (O00329 whole entry)": "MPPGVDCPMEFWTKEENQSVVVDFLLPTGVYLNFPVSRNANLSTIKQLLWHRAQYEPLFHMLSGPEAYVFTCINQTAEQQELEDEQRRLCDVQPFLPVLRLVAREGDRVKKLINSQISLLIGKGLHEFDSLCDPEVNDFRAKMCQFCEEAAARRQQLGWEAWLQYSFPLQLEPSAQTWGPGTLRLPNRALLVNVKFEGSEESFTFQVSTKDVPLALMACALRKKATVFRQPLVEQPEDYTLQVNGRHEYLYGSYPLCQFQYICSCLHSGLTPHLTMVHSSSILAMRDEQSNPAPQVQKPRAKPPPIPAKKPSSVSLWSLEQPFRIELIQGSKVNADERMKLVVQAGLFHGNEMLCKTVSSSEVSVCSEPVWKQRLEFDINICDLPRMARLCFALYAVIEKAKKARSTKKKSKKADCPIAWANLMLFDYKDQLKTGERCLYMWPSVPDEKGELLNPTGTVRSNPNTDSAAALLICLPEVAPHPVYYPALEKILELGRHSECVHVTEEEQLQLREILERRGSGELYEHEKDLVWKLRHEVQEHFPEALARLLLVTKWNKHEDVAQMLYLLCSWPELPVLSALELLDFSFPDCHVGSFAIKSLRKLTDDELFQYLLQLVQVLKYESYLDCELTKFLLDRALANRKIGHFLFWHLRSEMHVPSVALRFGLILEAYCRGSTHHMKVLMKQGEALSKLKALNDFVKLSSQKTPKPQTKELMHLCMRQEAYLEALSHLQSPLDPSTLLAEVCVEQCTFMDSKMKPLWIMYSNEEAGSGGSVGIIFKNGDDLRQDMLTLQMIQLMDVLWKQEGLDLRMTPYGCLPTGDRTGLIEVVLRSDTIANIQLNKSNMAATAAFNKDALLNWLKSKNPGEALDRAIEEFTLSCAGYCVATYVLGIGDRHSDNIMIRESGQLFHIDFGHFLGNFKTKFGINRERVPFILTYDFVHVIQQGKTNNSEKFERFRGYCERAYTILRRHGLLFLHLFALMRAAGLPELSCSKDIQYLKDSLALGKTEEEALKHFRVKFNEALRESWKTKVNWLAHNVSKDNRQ", "test": "Inhibition of PI3Kdelta (unknown origin) measured by ADP-Glo assay"}, "T47D [15]": {"system": "T47D", "test": "Downregulation of PD-L1 expression in human T47D cells at 10 to 1000 nM measured by western blot analysis", "type": "functional, cell-based", "settings": "dose 10-1000 nM, DDE = dose-dependent effect"}},
  "data": [
    {"smiles": "N#Cc1c(N)nc(N)nc1N1CC2(CC2)C[C@H]1c1nc2cccc(Cl)c2c(=O)n1Cc1ccc(C(=O)NO)s1", "values": [
      {"measurement": "Vd", "setting": "[1]", "result": 2.09, "unit": "L/kg"},
      {"measurement": "IC50", "setting": "Histone deacetylase 11", "result": 1550, "unit": "nM"},
      {"measurement": "Cmax", "setting": "[2]", "result": 2120, "unit": "ng/mL"},
      {"measurement": "Ratio IC50", "setting": "Homo sapiens [3]", "result": 73},
      {"measurement": "IC50", "setting": "Histone deacetylase 1", "result": 230, "unit": "nM"},
      {"measurement": "AUC(0-inf)", "setting": "[4]", "result": 632, "unit": "ng·h/mL"},
      {"measurement": "Activity", "setting": "T47D [5]", "result": "Dde"},
      {"measurement": "half-life", "setting": "[6]", "result": 27.6, "unit": "min"},
      {"measurement": "IC50", "setting": "[7]", "result": 30.5, "unit": "nM"},
      {"measurement": "Ratio IC50", "setting": "Homo sapiens [8]", "result": 13},
      {"measurement": "IC50", "setting": "Histone deacetylase 8", "result": "> 5000", "unit": "nM"},
      {"measurement": "IC50", "setting": "SU-DHL-6", "result": 150, "unit": "nM"},
      {"measurement": "clearance", "setting": "[9]", "result": 53, "unit": "mL/min/kg"},
      {"measurement": "IC50 at 72 h", "setting": "[10]", "result": 37000, "unit": "nM"},
      {"measurement": "Activity", "setting": "T47D [11]", "result": "Dde"},
      {"measurement": "IC50", "setting": "[12]", "result": 169, "unit": "nM"},
      {"measurement": "IC50", "setting": "T47D [13]", "result": 42, "unit": "nM"},
      {"measurement": "IC50", "setting": "KM12", "result": 1190, "unit": "nM"},
      {"measurement": "IC50", "setting": "[14]", "result": 2.3, "unit": "nM"},
      {"measurement": "Activity", "setting": "T47D [15]", "result": "Dde"}
    ]}
  ]
}
